Test results: patent US20160304552A1, “MODIFIED NUCLEIC ACID MOLECULES AND USES THEREOF” (MODERNA THERAPEUTICS, INC., priority 2013, published 2016)

Tests used:
[1] = system: HeLa cells; assay: Transfection in HeLa cells, human EPO modRNA (EPO ELISA of supernatant); type: cell-based; settings: Table 22, 18 h to 22 h
Method: (§1) The day before transfection, 20.000 HeLa cells (ATCC no. CCL-2; Manassas, Va.) were harvested by treatment with Trypsin-EDTA solution (LifeTechnologies, Grand Island, N.Y.) and seeded in a total volume of 100 ul EMEM medium (supplemented with 10% FCS and 1× Glutamax) per well in a 96-well cell culture plate (Corning, Manassas, Va.). The cells were grown at 37° C. in 5% CO2 atmosphere overnight. Next day, 83 ng of Luciferase modRNA or 250 ng of human GCSF modRNA, harboring chemical modifications on the bases or the ribose units, were diluted in 10 ul final volume of OPTI-MEM (LifeTechnologies, Grand Island, N.Y.). Lipofectamine 2000 (LifeTechnologies, Grand Island, N.Y.) was used as transfection reagent and 0.2 μl were diluted in 10 ul final volume of OPTI-MEM. After 5 min incubation at room temperature, both solutions were combined and incubated additional 15 min at room temperature. Then the 20 μl were added to the 100 ul cell culture medium containing the HeLa cells. The plates were then incubated as described before.
(§2) After 18 h to 22 h incubation, cell culture supernatants of cells expressing human GCSF or human EPO were collected and centrifuged at 10.000 rcf for 2 min. The cleared supernatants were transferred and analyzed with a human GCSF-specific or EPO ELISA kit (both from R&D Systems, Minneapolis, Minn.; Cat. #s SCS50, DEP00, respectively) according to the manufacturer instructions. All samples were diluted until the determined values were within the linear range of the human GCSF or EPO ELISA standard curve.

[2] = system: Rabbit Reticulocyte Lysate; assay: In vitro translation screen, human EPO modRNA (EPO ELISA); type: biochemical; settings: Table 20; 250 ng modRNA, 45 min, 30° C.
Method: (§3) The in vitro translation assay was done with the Rabbit Reticulocyte Lysate (nuclease-treated) kit (Promega, Madison, Wis.; Cat. #L4960) according to the manufacturer's instructions. The reaction buffer was a mixture of equal amounts of the amino acid stock solutions devoid of Leucine or Methionine provided in the kit.
(§4) The modRNAs of firefly Luciferase, human GCSF and human EPO, harboring chemical modifications on either the bases or the ribose units, were diluted in sterile nuclease-free water to a final concentration of 250 ng in 2.5 ul (Stock 100 ng/μl). The modRNA (250 ng) was added to the mixture of freshly prepared Rabbit Reticulocyte Lysate and reaction buffer.
(§5) Aliquots of the in vitro translation reaction containing human GCSF modRNA or human EPO mRNA were transferred and analyzed with a human GCSF-specific or EPO ELISA kit (both from R&D Systems, Minneapolis, Minn.; Cat. #s SCS50, DEP00 respectively) according to the manufacturer instructions. All samples were diluted until the determined values were within the linear range of the human GCSF or EPO ELISA standard curve.

[3] = system: human PBMC; assay: PBMC cytokine assay, interferon-alpha production (IFN-alpha multi-subtype ELISA); type: cell-based
Method: 50 mL of human blood from three donors was received from Research Blood Components (Brighton, Mass.) in sodium heparin tubes. […] The tubes were centrifuged at 2000 rpm for 30 minutes with low acceleration and braking (Thermo, Waltham, Mass., 75004506). The tubes were removed and the buffy coat PBMC layers were gently transferred to a fresh 50 mL conical and washed with DPBS. The tubes were centrifuged at 1450 rpm for 10 minutes. The supernatant was aspirated and the PBMC pellets were resuspended and washed in 50 mL of DPBS. The tubes were centrifuged at 1450 rpm for 10 minutes. […] The cell suspensions were adjusted to a concentration of 3.0×10^6 cells/mL live cells. […] Within 30 minutes, transfection mixtures were added to each well at a volume of 50 μL per well. […] The transfection mixtures were then transferred to each of the human PBMC plates at 50 μL per well (6 wells per mRNA sample). The plates were then incubated at 37° C. […] In order to harvest the supernatant, plates were centrifuged at 1450 rpm for 5 min in a swinging plate rotor. The supernatant of 6 wells transfected with the same mRNA was carefully harvested and pooled in a single well of a fresh 96-well plate. Supernatants were either frozen or used fresh until ELISA analysis was done. The ability of unmodified and modified mRNA to trigger innate immune recognition as measured by interferon-alpha production.

[4] = system: Rabbit Reticulocyte Lysate; assay: In vitro translation screen, human GCSF modRNA (GCSF ELISA); type: biochemical; settings: Table 20; 250 ng modRNA, 45 min, 30° C.
Method: as §3, §4, §5

[5] = system: HeLa cells; assay: Transfection in HeLa cells, Luciferase modRNA (luciferase assay, relative light units); type: cell-based, human; settings: Table 22, 83 ng modRNA, Lipofectamine 2000, 18 h to 22 h
Method: as §1
After 18 h to 22 h incubation, cells expressing luciferase were lysed with 100 μl Passive Lysis Buffer (Promega, Madison, Wis.) according to manufacturer instructions. Aliquots of the lysates were transferred to white opaque polystyrene 96-well plates (Corning, Manassas, Va.) and combined with 100 ul complete luciferase assay solution (Promega, Madison, Wis.). The lysate volumes were adjusted or diluted until no more than 2 mio relative light units per well were detected for the strongest signal producing samples. […] The plate reader was a BioTek Synergy H1 (BioTek, Winooski, Vt.).

[6] = target: T7 RNA polymerase (Escherichia phage T7, UniProt P00573); assay: In vitro transcription yields of modified mRNA; type: biochemical; settings: for EPO In Vitro Transcription yield: EPO mRNA made with the modified NTP(s); for GCSF In Vitro Transcription yield: GCSF mRNA made with the modified NTP(s); for Luc In Vitro Transcription yield: Luciferase mRNA made with the modified NTP(s)
Sequence of T7 RNA polymerase (P00573 whole entry): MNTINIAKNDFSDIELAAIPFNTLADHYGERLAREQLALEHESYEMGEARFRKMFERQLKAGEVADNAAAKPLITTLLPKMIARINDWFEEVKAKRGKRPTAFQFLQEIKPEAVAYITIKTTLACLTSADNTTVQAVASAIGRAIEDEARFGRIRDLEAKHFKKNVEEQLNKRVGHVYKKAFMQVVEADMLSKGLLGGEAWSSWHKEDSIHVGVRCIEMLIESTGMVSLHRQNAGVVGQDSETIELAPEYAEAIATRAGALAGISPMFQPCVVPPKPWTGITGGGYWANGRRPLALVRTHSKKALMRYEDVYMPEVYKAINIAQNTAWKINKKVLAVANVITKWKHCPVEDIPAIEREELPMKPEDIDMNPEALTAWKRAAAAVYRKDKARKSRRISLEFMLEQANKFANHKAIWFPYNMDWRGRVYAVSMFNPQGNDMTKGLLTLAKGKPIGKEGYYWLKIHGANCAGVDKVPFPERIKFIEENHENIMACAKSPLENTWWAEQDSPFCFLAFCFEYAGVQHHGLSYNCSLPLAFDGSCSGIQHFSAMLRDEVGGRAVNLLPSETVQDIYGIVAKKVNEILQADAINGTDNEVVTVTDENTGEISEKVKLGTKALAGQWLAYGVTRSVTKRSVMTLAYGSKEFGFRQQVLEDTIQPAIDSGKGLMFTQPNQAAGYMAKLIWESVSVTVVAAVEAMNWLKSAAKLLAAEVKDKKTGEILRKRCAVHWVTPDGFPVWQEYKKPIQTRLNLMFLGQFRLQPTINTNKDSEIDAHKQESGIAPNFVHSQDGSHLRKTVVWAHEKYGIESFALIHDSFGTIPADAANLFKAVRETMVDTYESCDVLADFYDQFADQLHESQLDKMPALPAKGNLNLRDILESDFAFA
Method: The in vitro transcription reaction generates mRNA containing modified nucleotides or modified RNA. The input nucleotide triphosphate (NTP) mix is made in-house using natural and unnatural NTPs.
A typical in vitro transcription reaction includes the following:
Incubation at 37° C. for 3 hr-5 hrs.
The crude IVT mix may be stored at 4° C. overnight for cleanup the next day. 1 U of RNase-free DNase is then used to digest the original template. After 15 minutes of incubation at 37° C., the mRNA is purified using Ambion's […]™ Kit (Austin, Tex.) following the manufacturer's instructions. This kit can purify up to 500 μg of RNA. Following the cleanup, the RNA is quantified using the NanoDrop and analyzed by agarose gel electrophoresis to confirm the RNA is the proper size and that no degradation of the RNA has occurred.
Modified mRNAs in TE buffer (1 μl) are used for Nanodrop UV absorbance readings to quantitate the yield of each modified mRNA from an in vitro transcription reaction (UV absorbance traces are not shown).

[7] = system: HeLa cells; assay: Transfection in HeLa cells, human GCSF modRNA (GCSF ELISA of supernatant); type: cell-based; settings: Table 22, 250 ng modRNA, 18 h to 22 h
Method: as §1, §2

[8] = system: Rabbit Reticulocyte Lysate; assay: In vitro translation screen, firefly Luciferase modRNA (luciferase assay, relative light units); type: biochemical; settings: Table 20; 250 ng modRNA, 45 min, 30° C.
Method: as §3, §4
After 45 min incubation, the reaction was stopped by placing the plate on ice. Aliquots of the in vitro translation reaction containing luciferase modRNA were transferred to white opaque polystyrene 96-well plates (Corning, Manassas, Va.; Cat. # CLS3912) and combined with 100 ul complete luciferase assay solution (Promega, Madison, Wis.). The volumes of the in vitro translation reactions were adjusted or diluted until no more than 2 million relative light units per well were detected for the strongest signal producing samples. […] The plate reader was a BioTek Synergy H1 (BioTek, Winooski, Vt.).

SMILES | Epo Expression [1] [pg/mL] | Epo Expression [2] [pg/mL] | interferon-alpha concentration in PBMC supernatant ([3]; Luc mRNA, 1st value in cell) [pg/mL] | interferon-alpha concentration in PBMC supernatant ([3]; Luc mRNA, 2nd value in cell) [pg/mL] | interferon-alpha concentration in PBMC supernatant ([3]; Luc mRNA, 3rd value in cell) [pg/mL] | interferon-alpha concentration in PBMC supernatant ([3]; hEPO mRNA, 1st value in cell) [pg/mL] | interferon-alpha concentration in PBMC supernatant ([3]; hEPO mRNA, 2nd value in cell) [pg/mL] | interferon-alpha concentration in PBMC supernatant ([3]; hEPO mRNA, 3rd value in cell) [pg/mL] | interferon-alpha concentration in PBMC supernatant ([3]; hGCSF mRNA, 1st value in cell) [pg/mL] | interferon-alpha concentration in PBMC supernatant ([3]; hGCSF mRNA, 2nd value in cell) [pg/mL] | interferon-alpha concentration in PBMC supernatant ([3]; hGCSF mRNA, 3rd value in cell) [pg/mL] | GCSF Expression [4] [pg/mL] | Luc Expression (RLUs) [5] [RLUs] | EPO In Vitro Transcription yield [6] [mg] | GCSF In Vitro Transcription yield [6] [mg] | Luc In Vitro Transcription yield [6] [mg] | GCSF Expression [7] [pg/mL] | Luc Expression (RLUs) [8] [RLUs]
Nc1nc(=O)n([C@@H]2O[C@H](COP(=O)(O)OP(=O)(O)OP(=O)(O)O)C(O)C2O)cc1CO (stereo in doubt) [00901014005 (350), 5-Hydroxymethyl-CTP] | 440300 | 9425 | 7130 | 3680 | 8990 | 4960 | 3100 | 2412.5 | 6575 | 5800 | 8180 | 26600 | 22160 | 0.7778 | 0.6391 | 0.4073 | 1151000 | 154000
O=c1[nH]c(=O)n([C@@H]2O[C@H](COP(=O)(O)OP(=O)(O)OP(=O)(O)O)C(O)C2O)cc1Br (stereo in doubt) [Compound 00901013009, 5-Bromo-UTP] | 210500 | 18220 | – | – | – | – | – | – | – | – | – | 21530 | 2731 | 0.2617 | 0.3566 | 0.3352 | 118600 | 218500
NC/C=C/c1cn([C@@H]2O[C@H](COP(=O)(O)OP(=O)(O)OP(=O)(O)O)C(O)C2O)c(=O)[nH]c1=O (stereo in doubt) [Compound 00901013010, 5-Aminoallyl-UTP] | 67440 | 1863 | – | – | – | – | – | – | – | – | – | 3706 | 1946 | 0.3732 | 0.4206 | 0.3513 | 40710 | 14870
O=c1ccn([C@@H]2O[C@H](COP(O)(=S)OP(=O)(O)OP(=O)(O)O)C(O)C2O)c(=O)[nH]1 (stereo in doubt) [Compound 00902013001, Alpha-thio-UTP] | 190700 | 14260 | – | – | – | – | – | – | – | – | – | 20530 | 937.0 | 0.2666 | 0.2605 | 0.3510 | 73570 | 51180
Nc1ccn([C@@H]2O[C@H](COP(O)(=S)OP(=O)(O)OP(=O)(O)O)C(O)C2O)c(=O)n1 (stereo in doubt) [Compound 00902014001, Alpha-thio-CTP] | 195400 | 17000 | – | – | – | – | – | – | – | – | – | 26930 | 1845 | 0.2669 | 0.2650 | 0.3352 | 285000.00 | 142900
